# Laboratory results published in patent publication US10253002B2, “Compounds and methods of treating infections” (Neoculi Pty Ltd., priority 2013, dated 2019).
# Where two headings read alike, the source gives them in different places.
# Experiments:
# [1] = system: S. aureus clinical isolates (MRSA and MSSA); experiment: Broth microdilution MIC, Example 4; format: cell-based, Staphylococcus aureus; conditions: for MIC / MIC50 / MIC90: Staphylococcus aureus; for MIC: 24 h
# Description: Microtiter plates containing two-fold dilutions of each antimicrobial agent were inoculated with ˜10^5 CFU/ml of each isolate in a 100 μL final volume. Plates were incubated for 24 h at 37° C. Turbidity (absorbance at OD600) was measured using a Bio-Rad Benchmark Plus microplate spectrophotometer in Microplate Manager® version 5.2.1 (Bio-Rad). Minimum inhibitory concentration (MIC) endpoints were defined as the lowest antimicrobial concentration assessed by the spectrophotometer that inhibited bacterial growth. ATCC 49775 was included in the isolate collection as a control organism using breakpoints defined by the CLSI. The MIC50, MIC90 (concentrations that inhibited growth of the lower 50% and 90% of total organisms, respectively), and MIC range (minimum and maximum) were calculated to profile the antimicrobial susceptibility of the isolate collection.
# [2] = system: methicillin-susceptible S. aureus ATCC 49775; experiment: Time-kill assays (microdilution and 10 ml macrodilution), Example 4; format: cell-based, Staphylococcus aureus
# Description: Bactericidal activity in macrodilution assays was identified as a 3 log10 decrease from the initial inoculum size. Bacteria were cultured overnight at 37° C. on SBA. Colonies were suspended in broth and the turbidity was adjusted to a 0.5 McFarland standard to obtain a bacterial suspension of […]. Bacterial suspensions were incubated at 37° C. with shaking. Aliquots were removed at 0, 1, 2, 4, 8, 12, and 24 h after antimicrobial addition, diluted, plated onto SBA and incubated for 48 h at 37° C. for viable count determination. Turbidimetric growth curves for S. aureus were obtained for Microtiter plate assays by monitoring optical density changes using a Bio-Rad Benchmark Plus microplate spectrophotometer at 600 nm. Optical densities were measured at 0, 1, 2, 4, 8, 12, and 24 h after antimicrobial addition.
# S. pneumoniae isolates [3] = experiment: Micro-broth dilution MIC, Example 5; format: cell-based, Streptococcus pneumoniae
# Description: For all in vitro assays, fresh pneumococcal isolates were grown overnight (O/N) on horse blood agar (HBA) plates (39 g/L Columbia blood agar base [Oxoid] 5% [v/v] defribinated horse blood [Oxoid] at 37° C. with 5% supplemented CO2). Mueller-Hinton blood agar with 5% defibrinated sheep blood (MHSBA Roseworthy Media and Blood Service) was used for disk diffusion analysis as directed by Clinical Laboratory Standards Institute (CLSI) standards. Pneumococci were routinely grown in broth consisting of 4% lysed horse blood (LHB) with Cation Adjusted Mueller Hinton Broth (CAHMB, [Difco]) at 37° C. with 5% supplemented CO2. […] Isolates were stored in HSB at −80° C.
# [Micro-broth dilutions and 96 well trays are prepared by the following method: 90 μL of 4% LHB:CAMHB is aliquotted into all wells using a multichannel pipette. 90 μL of working antimicrobial stocks were no serial diluted down the tray by a 1:2 dilution. Negative broth controls and dilution control were taken into account when planning the set up of a 96 well tray.] 10 μL of bacterial suspension was then added to the appropriate wells in the 96 well tray. Appropriate positive (no antimicrobial), negative (no antimicrobial or bacteria) and negative dilution (a serial dilution control of antimicrobial and broth) controls were included in each assay. […] The MBC was determined by a 99.95% inhibition of S. pneumoniae, taking into account the dilution factor. MICs and MBCs were determined in quadruplicate and the mode was taken as the representative value. The MIC50, MIC90 and MIC range and MBC50, MBC90 and MBC range were determined according to CLSI standards. The MIC50 and MIC90, or MBC50 and MBC90, are defined by the lowest concentrations which, when all the MICs and MBCs of the isolates are arranged from lowest to highest, inhibited the 50th and 90th percentile of the total amount of isolates, respectively.
# S. pneumoniae isolates [4] = experiment: Disk diffusion susceptibility (CLSI/EUCAST), Example 5; format: cell-based, Streptococcus pneumoniae
# Outline: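 Susceptibility to 12 antimicrobials was categorised (S/I/R) using CLSI breakpoints from zones of complete inhibition, read thrice to the nearest millimetre with the mode taken. Incubation was 16–24 h, 37 °C, 5% CO2.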
# [5] = Methicillin-susceptible staphylococci (n = 10)
# [6] = Total bacterial isolates (n = 30)
structure (smiles),measurement,setting,value
"N=C(N/N=C/c1ccc(Cl)cc1)N/N=C/c1ccc(Cl)cc1 [NCL812, 1,3-bis[(E)-(4-chlorophenyl)methyleneamino]guanidine]",MICrange,[1]; CA-MRSA (n = 10),2 to 4 µg/mL
same,MICrange,[1]; [5],2 to 8 µg/mL
same,MICrange,[1]; [6],2 to 8 µg/mL
same,"bacterial growth, turbidimetric growth curve","[2]; ATCC 49775, 1× and 4× the MIC, microdilution, up to 24 h",no visible bacterial growth
same,remained bactericidal until (then regrowth),"[2]; ATCC 49775, 10 mL macrodilution, 1× and 4× the MIC",8 to 12 h
same,"bacterial regrowth observed at, after antimicrobial addition",[2]; ATCC 49775 time-kill,12 h
same,MIC,"S. pneumoniae isolates [3]; Streptococcus pneumoniae, read-out: Relative MIC with media type for D39, D39, 10% horse serum-supplemented broth",32 µg/mL
CC1(C)S[C@@H]2[C@H](NC(=O)[C@H](N)c3ccccc3)C(=O)N2[C@H]1C(=O)O [Ampicillin],MICrange,[1]; CA-MRSA (n = 10),8 to 128 µg/mL
same,MICrange,[1]; [5],0.25-16^ μg/ml
same,MIC,"[1]; read-out: Observed MIC at 24-h, MRSA580, present study",> 128 µg/mL
same,MIC,"[1]; read-out: Observed MIC at 24-h, MRSA698, present study",16 µg/mL
same,MIC,"[1]; read-out: Original MIC at 24-h, MRSA580, preliminary studies",> 128 µg/mL
same,MIC,"[1]; read-out: Original MIC at 24-h, MRSA698, preliminary studies",16 µg/mL
same,MIC,"[1]; ATCC 49775 / MRSA / MSSA, read-out: Observed MIC at 24-h, ATCC 49775, present study",0.25 µg/mL
same,MIC50,[1]; CA-MRSA (n = 10),64 µg/mL
same,MIC90,[1]; CA-MRSA (n = 10),128 µg/mL
same,MIC50,[1]; HA-MRSA (n = 10),64 µg/mL
same,MIC90,[1]; HA-MRSA (n = 10),> 128 µg/mL
same,MIC50,[1]; [5],0.25 µg/mL
same,MIC90,[1]; [5],8 µg/mL
same,MIC50,[1]; [6],16 µg/mL
same,MIC90,[1]; [6],128 µg/mL
same,disk diffusion zone diameter,S. pneumoniae isolates [4]; A66.1,37 mm
same,disk diffusion zone diameter,S. pneumoniae isolates [4]; D39,37 mm
same,disk diffusion zone diameter,S. pneumoniae isolates [4]; EF3030,38 mm
same,disk diffusion zone diameter,S. pneumoniae isolates [4]; L82016,41 mm
same,disk diffusion zone diameter,S. pneumoniae isolates [4]; P9,33 mm
same,disk diffusion zone diameter,S. pneumoniae isolates [4]; P21,40 mm
same,disk diffusion zone diameter,S. pneumoniae isolates [4]; TIGR4,37 mm
same,disk diffusion zone diameter,S. pneumoniae isolates [4]; WCH16,41 mm
same,disk diffusion zone diameter,S. pneumoniae isolates [4]; WCH43,36 mm
same,disk diffusion zone diameter,S. pneumoniae isolates [4]; WCH46,37 mm
same,disk diffusion zone diameter,S. pneumoniae isolates [4]; WCH57,43 mm
same,disk diffusion zone diameter,S. pneumoniae isolates [4]; WCH77,43 mm
same,disk diffusion zone diameter,S. pneumoniae isolates [4]; WCH86,38 mm
same,disk diffusion zone diameter,S. pneumoniae isolates [4]; WCH89,38 mm
same,disk diffusion zone diameter,S. pneumoniae isolates [4]; WCH92,38 mm
same,disk diffusion zone diameter,S. pneumoniae isolates [4]; WCH137,40 mm
same,disk diffusion zone diameter,S. pneumoniae isolates [4]; WCH158,42 mm
same,disk diffusion zone diameter,S. pneumoniae isolates [4]; WCH184,33 mm
same,disk diffusion zone diameter,S. pneumoniae isolates [4]; WCH211,39 mm
same,disk diffusion zone diameter,S. pneumoniae isolates [4]; WU2,38 mm
same,Resistance status to Ampicillin,S. pneumoniae isolates [4]; isolate A66.1,Sensitive
same,Resistance status to Ampicillin,S. pneumoniae isolates [4]; isolate D39,Sensitive
same,Resistance status to Ampicillin,S. pneumoniae isolates [4]; isolate P21,Sensitive
same,Resistance status to Ampicillin,S. pneumoniae isolates [4]; isolate WCH57,Sensitive
same,Resistance status to Ampicillin,S. pneumoniae isolates [4]; isolate WCH158,Sensitive
same,Resistance status to Ampicillin,S. pneumoniae isolates [4]; isolate WU-2,Sensitive
same,MIC,"S. pneumoniae isolates [3]; Streptococcus pneumoniae, D39, 4% LHB:CAMHB, read-out: Relative MIC with media type for D39",0.023 µg/mL
same,MIC,"S. pneumoniae isolates [3]; Streptococcus pneumoniae, D39, 10% horse serum-supplemented broth, read-out: Relative MIC with media type for D39",0.09 µg/mL
same,MIC,"S. pneumoniae isolates [3]; Streptococcus pneumoniae, isolate A66.1, Table 22, CAMHB diluent for NCL062, read-out: MIC",0.045 µg/mL
same,MIC,"S. pneumoniae isolates [3]; Streptococcus pneumoniae, isolate D39, Table 22, CAMHB diluent for NCL062, read-out: MIC",0.0225 µg/mL
same,MIC,"S. pneumoniae isolates [3]; Streptococcus pneumoniae, isolate P21, Table 22, CAMHB diluent for NCL062, read-out: MIC",0.0225 µg/mL
same,MIC,"S. pneumoniae isolates [3]; Streptococcus pneumoniae, isolate WCH57, Table 22, CAMHB diluent for NCL062, read-out: MIC",0.09 µg/mL
same,MIC,"S. pneumoniae isolates [3]; Streptococcus pneumoniae, isolate WCH158, Table 22, CAMHB diluent for NCL062, read-out: MIC",0.0225 µg/mL
same,MIC,"S. pneumoniae isolates [3]; Streptococcus pneumoniae, isolate WU-2, Table 22, CAMHB diluent for NCL062, read-out: MIC",0.0225 µg/mL
same,MIC,"S. pneumoniae isolates [3]; Streptococcus pneumoniae, pneumococcal isolate A66.1, read-out: MIC",0.045 µg/mL
same,MIC,"S. pneumoniae isolates [3]; Streptococcus pneumoniae, pneumococcal isolate D39, read-out: MIC",0.023 µg/mL
same,MIC,"S. pneumoniae isolates [3]; Streptococcus pneumoniae, pneumococcal isolate EF3030, read-out: MIC",0.023 µg/mL
same,MIC,"S. pneumoniae isolates [3]; Streptococcus pneumoniae, pneumococcal isolate L82016, read-out: MIC",0.023 µg/mL
same,MIC,"S. pneumoniae isolates [3]; Streptococcus pneumoniae, pneumococcal isolate P9, read-out: MIC",0.023 µg/mL
same,MIC,"S. pneumoniae isolates [3]; Streptococcus pneumoniae, pneumococcal isolate P21, read-out: MIC",0.023 µg/mL
same,MIC,"S. pneumoniae isolates [3]; Streptococcus pneumoniae, pneumococcal isolate TIGR4, read-out: MIC",0.023 µg/mL
same,MIC,"S. pneumoniae isolates [3]; Streptococcus pneumoniae, pneumococcal isolate WCH16, read-out: MIC",0.023 µg/mL
same,MIC,"S. pneumoniae isolates [3]; Streptococcus pneumoniae, pneumococcal isolate WCH43, read-out: MIC",0.023 µg/mL
same,MIC,"S. pneumoniae isolates [3]; Streptococcus pneumoniae, pneumococcal isolate WCH46, read-out: MIC",0.023 µg/mL
same,MIC,"S. pneumoniae isolates [3]; Streptococcus pneumoniae, pneumococcal isolate WCH57, read-out: MIC",0.023 µg/mL
same,MIC,"S. pneumoniae isolates [3]; Streptococcus pneumoniae, pneumococcal isolate WCH77, read-out: MIC",0.023 µg/mL
same,MIC,"S. pneumoniae isolates [3]; Streptococcus pneumoniae, pneumococcal isolate WCH86, read-out: MIC",0.023 µg/mL
same,MIC,"S. pneumoniae isolates [3]; Streptococcus pneumoniae, pneumococcal isolate WCH89, read-out: MIC",0.023 µg/mL
same,MIC,"S. pneumoniae isolates [3]; Streptococcus pneumoniae, pneumococcal isolate WCH92, read-out: MIC",0.09 µg/mL
same,MIC,"S. pneumoniae isolates [3]; Streptococcus pneumoniae, pneumococcal isolate WCH137, read-out: MIC",0.023 µg/mL
same,MIC,"S. pneumoniae isolates [3]; Streptococcus pneumoniae, pneumococcal isolate WCH158, read-out: MIC",0.023 µg/mL
same,MIC,"S. pneumoniae isolates [3]; Streptococcus pneumoniae, pneumococcal isolate WCH184, read-out: MIC",0.045 µg/mL
same,MIC,"S. pneumoniae isolates [3]; Streptococcus pneumoniae, pneumococcal isolate WCH211, read-out: MIC",0.023 µg/mL
same,MIC,"S. pneumoniae isolates [3]; Streptococcus pneumoniae, pneumococcal isolate WU2, read-out: MIC",0.023 µg/mL
same,MIC50,"S. pneumoniae isolates [3]; Streptococcus pneumoniae, all S. pneumoniae isolates, read-out: MIC50",0.023 µg/mL
same,MIC90,"S. pneumoniae isolates [3]; Streptococcus pneumoniae, all S. pneumoniae isolates, read-out: MIC90",0.023 µg/mL
same,MIC range,S. pneumoniae isolates [3]; all S. pneumoniae isolates,0.011 to 0.09 µg/mL
